Data published in US8883827B2, “Azole derivatives as WTN pathway inhibitors” (Oslo University Hospital HF, priority 2009, dated 2014).

Experiments:
PDGFRβ(h) = target: T1, PDGFRβ(h) (Homo sapiens, UniProt P09619); experiment: Kinase screen; type: biochemical; conditions: 0.1% DMSO control = 100%
T1 construct: purchased Millipore (KinaseProfiler service)

MKK7β(h) = target: T2, MKK7β(h) (Homo sapiens, UniProt O14733); experiment: Kinase screen; type: biochemical; conditions: 0.1% DMSO control = 100%
T2 construct: purchased Millipore (KinaseProfiler service)

TCPTP(h) = target: T3, TCPTP(h) (Homo sapiens, UniProt P17706); experiment: Phosphatase screen; type: biochemical; conditions: 0.1% DMSO control = 100%
T3 construct: purchased Millipore (KinaseProfiler service)
T3 sequence (P17706 whole entry): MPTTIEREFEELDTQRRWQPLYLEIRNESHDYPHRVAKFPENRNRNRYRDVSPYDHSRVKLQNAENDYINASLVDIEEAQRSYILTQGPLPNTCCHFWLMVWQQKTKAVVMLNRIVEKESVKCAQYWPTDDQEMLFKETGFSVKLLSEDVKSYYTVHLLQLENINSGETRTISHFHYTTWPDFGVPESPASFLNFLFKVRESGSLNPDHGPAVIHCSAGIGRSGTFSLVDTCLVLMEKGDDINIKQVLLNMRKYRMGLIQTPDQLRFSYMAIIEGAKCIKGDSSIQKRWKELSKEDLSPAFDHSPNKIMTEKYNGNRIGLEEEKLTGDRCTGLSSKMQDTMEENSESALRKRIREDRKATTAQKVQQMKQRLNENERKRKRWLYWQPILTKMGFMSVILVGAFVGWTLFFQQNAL

LOK(h) = target: T4, LOK(h) (Homo sapiens, UniProt O94804); experiment: Kinase screen; type: biochemical; conditions: 0.1% DMSO control = 100%
T4 construct: purchased Millipore (KinaseProfiler service)

Plk3(h) = target: T5, Plk3(h) (Homo sapiens, UniProt Q9H4B4); experiment: Kinase screen; type: biochemical; conditions: 0.1% DMSO control = 100%
T5 construct: purchased Millipore (KinaseProfiler service)

MSK2(h) = target: T6, MSK2(h) (Homo sapiens, UniProt O75676); experiment: Kinase screen; type: biochemical; conditions: 0.1% DMSO control = 100%
T6 construct: purchased Millipore (KinaseProfiler service)

ASK1(h) = target: T7, ASK1(h) (Homo sapiens, UniProt Q99683); experiment: Kinase screen; type: biochemical; conditions: 0.1% DMSO control = 100%
T7 construct: purchased Millipore (KinaseProfiler service)
T7 sequence (Q99683 whole entry): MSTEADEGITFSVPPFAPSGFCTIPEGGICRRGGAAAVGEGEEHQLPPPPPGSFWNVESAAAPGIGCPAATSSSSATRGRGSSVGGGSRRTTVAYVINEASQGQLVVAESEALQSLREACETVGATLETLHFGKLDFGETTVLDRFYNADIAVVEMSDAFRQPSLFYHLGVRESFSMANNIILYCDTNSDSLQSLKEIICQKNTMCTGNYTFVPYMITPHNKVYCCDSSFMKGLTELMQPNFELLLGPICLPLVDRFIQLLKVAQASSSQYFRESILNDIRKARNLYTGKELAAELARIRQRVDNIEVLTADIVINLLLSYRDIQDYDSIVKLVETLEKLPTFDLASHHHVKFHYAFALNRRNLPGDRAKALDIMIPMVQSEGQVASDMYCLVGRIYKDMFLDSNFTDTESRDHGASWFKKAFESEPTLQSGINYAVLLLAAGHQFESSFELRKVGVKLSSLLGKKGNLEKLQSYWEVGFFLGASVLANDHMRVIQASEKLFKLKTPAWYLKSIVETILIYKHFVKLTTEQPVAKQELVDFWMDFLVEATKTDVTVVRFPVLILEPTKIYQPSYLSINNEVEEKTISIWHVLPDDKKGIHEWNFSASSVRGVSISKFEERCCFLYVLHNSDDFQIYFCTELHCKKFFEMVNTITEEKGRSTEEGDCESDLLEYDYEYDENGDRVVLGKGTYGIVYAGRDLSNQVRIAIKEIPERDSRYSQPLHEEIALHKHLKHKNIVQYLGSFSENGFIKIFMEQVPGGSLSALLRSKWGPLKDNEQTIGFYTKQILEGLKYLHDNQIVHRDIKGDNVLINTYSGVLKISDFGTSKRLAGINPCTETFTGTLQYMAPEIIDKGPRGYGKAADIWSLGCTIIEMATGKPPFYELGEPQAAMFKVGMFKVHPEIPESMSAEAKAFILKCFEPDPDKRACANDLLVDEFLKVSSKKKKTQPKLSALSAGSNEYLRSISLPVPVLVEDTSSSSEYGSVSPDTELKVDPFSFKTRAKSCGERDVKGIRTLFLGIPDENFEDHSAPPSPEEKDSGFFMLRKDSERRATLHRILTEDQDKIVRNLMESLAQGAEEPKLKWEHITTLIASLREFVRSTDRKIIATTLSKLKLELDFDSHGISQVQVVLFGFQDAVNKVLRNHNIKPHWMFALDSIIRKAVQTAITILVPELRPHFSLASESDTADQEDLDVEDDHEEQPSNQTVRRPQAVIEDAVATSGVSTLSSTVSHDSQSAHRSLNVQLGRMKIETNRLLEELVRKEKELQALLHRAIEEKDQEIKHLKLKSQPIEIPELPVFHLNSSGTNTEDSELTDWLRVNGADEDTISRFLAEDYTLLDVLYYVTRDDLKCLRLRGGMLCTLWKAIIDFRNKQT

canonical Wnt signaling = experiment: ST-Luc (SuperTOPFlash) Luciferase assay in HEK293 cells, 30% Wnt3a-CM; type: cell-based; conditions: Homo sapiens, 24 h
Procedure, shortened: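 HEK293 cells were transiently co-transfected with SuperTOPFlash firefly luciferase and pRL-TK Renilla reporters, then treated 24 h with 10 μM compound in 30% Wnt3a-conditioned medium. Dual luciferase activity was read, and percent activity was expressed relative to DMSO control.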

SW480 cells = experiment: Growth inhibition (GI50) MTS assay; type: cell-based; conditions: Homo sapiens, 72 h
Procedure: Growth inhibition curves were prepared using SW480 cells, prepared essentially according to Example 23. SW480 cells (3000 cells per well) were seeded on 96 well plates (eight replicates per treatment). 24 hours later and daily thereafter, cell culture media (including 10% FBS) was mixed with various compound concentrations or with 0.1% DMSO vehicle and then added to the wells. Sixteen wells of seeded control cells, defining incubation time zero (to =24 hour after cell seeding), were incubated with […] substrate in 100 μl of phenol-free D-MEM (Invitrogen) for 2 hours, as described in the CellTiter 96® AQueous Non-Radioactive Cell Proliferation Assay protocol (MTS, Promega). The A490 was recorded. The treatment samples were likewise measured after 72 hours. The following formula was used to determine the single well relative A490 sample values: ((Sample A490−Average A490t0)*100)/(Average A490t720.1% DMSO control−Average A490t0)
XLfit (idbs) was used to determine the IC50 and GI50 values in inhibition experiments. The data were fit to the following formulae:
GI50: Eadie-Hofstee Model: fit=(A+((B*x)/((C*(D+1))+x))) inv=(((y−A)*(C*(D+1)))/((A+B)−y)) res=(y−fit)

MLK1(h) = target: T8, MLK1(h) (Homo sapiens, UniProt P80192); experiment: Kinase screen; type: biochemical; conditions: 0.1% DMSO control = 100%
T8 construct: purchased Millipore (KinaseProfiler service)

EGFR(h) = target: T9, EGFR(h) (Homo sapiens, UniProt P00533); experiment: Kinase screen; type: biochemical; conditions: 0.1% DMSO control = 100%
T9 construct: purchased Millipore (KinaseProfiler service)
T9 sequence (P00533 25-1210): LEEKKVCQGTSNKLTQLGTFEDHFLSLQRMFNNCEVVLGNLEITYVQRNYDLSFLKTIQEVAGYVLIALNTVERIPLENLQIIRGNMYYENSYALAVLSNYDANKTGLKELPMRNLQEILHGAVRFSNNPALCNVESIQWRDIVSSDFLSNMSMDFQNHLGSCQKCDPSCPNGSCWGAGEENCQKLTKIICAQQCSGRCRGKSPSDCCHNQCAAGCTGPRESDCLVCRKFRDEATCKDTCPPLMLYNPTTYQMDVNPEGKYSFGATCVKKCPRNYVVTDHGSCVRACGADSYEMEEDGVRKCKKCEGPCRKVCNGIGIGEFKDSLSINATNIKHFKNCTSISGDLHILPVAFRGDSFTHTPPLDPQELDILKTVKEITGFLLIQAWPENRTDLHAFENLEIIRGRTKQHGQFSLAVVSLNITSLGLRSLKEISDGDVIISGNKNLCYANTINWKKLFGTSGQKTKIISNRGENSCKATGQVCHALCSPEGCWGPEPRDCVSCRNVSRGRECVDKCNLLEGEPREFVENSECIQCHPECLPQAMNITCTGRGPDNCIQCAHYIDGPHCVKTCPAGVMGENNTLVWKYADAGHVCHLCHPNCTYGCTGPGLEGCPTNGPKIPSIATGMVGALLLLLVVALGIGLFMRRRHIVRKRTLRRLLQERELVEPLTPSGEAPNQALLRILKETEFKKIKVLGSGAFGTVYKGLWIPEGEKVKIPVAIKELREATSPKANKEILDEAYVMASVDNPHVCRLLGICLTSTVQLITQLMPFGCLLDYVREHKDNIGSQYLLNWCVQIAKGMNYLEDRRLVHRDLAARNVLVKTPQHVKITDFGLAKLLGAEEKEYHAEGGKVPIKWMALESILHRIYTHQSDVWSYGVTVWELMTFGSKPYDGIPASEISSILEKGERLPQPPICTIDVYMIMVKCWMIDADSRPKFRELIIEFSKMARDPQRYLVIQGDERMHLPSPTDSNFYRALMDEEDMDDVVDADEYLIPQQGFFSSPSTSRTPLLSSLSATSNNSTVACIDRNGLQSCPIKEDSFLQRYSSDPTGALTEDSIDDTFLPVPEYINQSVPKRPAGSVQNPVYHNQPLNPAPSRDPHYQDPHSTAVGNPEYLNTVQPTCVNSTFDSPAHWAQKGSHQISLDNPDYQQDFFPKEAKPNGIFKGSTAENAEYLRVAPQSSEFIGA

SRPK1(h) = target: T10, SRPK1(h) (Homo sapiens, UniProt Q96SB4); experiment: Kinase screen; type: biochemical; conditions: 0.1% DMSO control = 100%
T10 construct: purchased Millipore (KinaseProfiler Service)

p70S6K(h) = target: T11, p70S6K(h) (Homo sapiens, UniProt P23443); experiment: Kinase screen; type: biochemical; conditions: 0.1% DMSO control = 100%
T11 construct: purchased Millipore (KinaseProfiler service)

CDK1/cyclinB(h) = target: T12, CDK1/cyclinB(h) (Homo sapiens, UniProt P06493); experiment: Kinase screen; type: biochemical; conditions: 0.1% DMSO control = 100%
T12 construct: purchased Millipore (KinaseProfiler service)

PKA(h) = target: T13, PKA(h) (Homo sapiens, UniProt P17612); experiment: Kinase screen; type: biochemical; conditions: 0.1% DMSO control = 100%
T13 construct: purchased Millipore (KinaseProfiler service)

Pim-1(h) = target: T14, Pim-1(h) (Homo sapiens, UniProt P11309); experiment: Kinase screen; type: biochemical; conditions: 0.1% DMSO control = 100%
T14 construct: purchased Millipore (KinaseProfiler service)

Rse(h) = target: T15, Rse(h) (Homo sapiens, UniProt Q06418); experiment: Kinase screen; type: biochemical; conditions: 0.1% DMSO control = 100%
T15 construct: purchased Millipore (KinaseProfiler service)
T15 sequence (Q06418 41-890): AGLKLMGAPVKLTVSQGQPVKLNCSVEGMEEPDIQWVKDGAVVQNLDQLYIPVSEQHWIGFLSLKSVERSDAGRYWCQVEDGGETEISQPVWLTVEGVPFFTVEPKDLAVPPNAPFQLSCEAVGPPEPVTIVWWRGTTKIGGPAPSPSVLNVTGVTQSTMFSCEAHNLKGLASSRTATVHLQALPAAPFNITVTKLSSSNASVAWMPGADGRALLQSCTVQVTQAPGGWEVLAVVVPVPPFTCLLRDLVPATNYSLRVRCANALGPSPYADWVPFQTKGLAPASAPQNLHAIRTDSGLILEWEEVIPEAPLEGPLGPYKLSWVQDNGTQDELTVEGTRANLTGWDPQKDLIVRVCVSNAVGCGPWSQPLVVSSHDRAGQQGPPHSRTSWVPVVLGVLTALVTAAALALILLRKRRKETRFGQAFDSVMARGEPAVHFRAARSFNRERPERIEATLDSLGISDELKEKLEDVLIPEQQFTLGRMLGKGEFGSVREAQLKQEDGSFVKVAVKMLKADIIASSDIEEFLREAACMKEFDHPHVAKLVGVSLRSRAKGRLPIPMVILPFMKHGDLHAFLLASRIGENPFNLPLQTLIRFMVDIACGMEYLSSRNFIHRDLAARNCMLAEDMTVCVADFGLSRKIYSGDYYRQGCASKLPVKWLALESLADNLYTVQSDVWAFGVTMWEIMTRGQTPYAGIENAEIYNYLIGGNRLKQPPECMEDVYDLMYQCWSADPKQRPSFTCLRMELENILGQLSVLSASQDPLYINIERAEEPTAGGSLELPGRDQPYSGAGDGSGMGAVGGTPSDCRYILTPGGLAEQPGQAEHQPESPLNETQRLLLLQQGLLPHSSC

MEK1(h) = target: T16, MEK1(h) (Homo sapiens, UniProt Q02750); experiment: Kinase screen; type: biochemical; conditions: 0.1% DMSO control = 100%
T16 construct: purchased Millipore (KinaseProfiler service)

PAK2(h) = target: T17, PAK2(h) (Homo sapiens, UniProt Q13177); experiment: Kinase screen; type: biochemical; conditions: 0.1% DMSO control = 100%
T17 construct: purchased Millipore (KinaseProfiler service)
T17 sequence (Q13177 whole entry): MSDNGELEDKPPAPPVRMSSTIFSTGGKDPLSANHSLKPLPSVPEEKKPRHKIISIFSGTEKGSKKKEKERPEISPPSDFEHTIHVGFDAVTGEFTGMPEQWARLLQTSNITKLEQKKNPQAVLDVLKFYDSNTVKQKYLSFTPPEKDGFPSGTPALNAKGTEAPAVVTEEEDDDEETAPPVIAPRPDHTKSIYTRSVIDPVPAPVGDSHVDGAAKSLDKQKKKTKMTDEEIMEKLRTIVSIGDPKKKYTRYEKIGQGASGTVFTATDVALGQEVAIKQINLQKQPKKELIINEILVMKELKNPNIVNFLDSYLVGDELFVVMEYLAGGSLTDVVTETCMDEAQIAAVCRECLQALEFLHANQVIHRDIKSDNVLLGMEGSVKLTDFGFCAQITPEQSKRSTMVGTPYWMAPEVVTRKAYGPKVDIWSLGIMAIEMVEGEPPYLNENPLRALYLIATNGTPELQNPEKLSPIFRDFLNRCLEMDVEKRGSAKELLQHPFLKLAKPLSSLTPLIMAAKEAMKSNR

IRAK4(h) = target: T18, IRAK4(h) (Homo sapiens, UniProt Q9NWZ3); experiment: Kinase screen; type: biochemical; conditions: 0.1% DMSO control = 100%
T18 construct: purchased Millipore (KinaseProfiler service)
T18 sequence (Q9NWZ3 whole entry): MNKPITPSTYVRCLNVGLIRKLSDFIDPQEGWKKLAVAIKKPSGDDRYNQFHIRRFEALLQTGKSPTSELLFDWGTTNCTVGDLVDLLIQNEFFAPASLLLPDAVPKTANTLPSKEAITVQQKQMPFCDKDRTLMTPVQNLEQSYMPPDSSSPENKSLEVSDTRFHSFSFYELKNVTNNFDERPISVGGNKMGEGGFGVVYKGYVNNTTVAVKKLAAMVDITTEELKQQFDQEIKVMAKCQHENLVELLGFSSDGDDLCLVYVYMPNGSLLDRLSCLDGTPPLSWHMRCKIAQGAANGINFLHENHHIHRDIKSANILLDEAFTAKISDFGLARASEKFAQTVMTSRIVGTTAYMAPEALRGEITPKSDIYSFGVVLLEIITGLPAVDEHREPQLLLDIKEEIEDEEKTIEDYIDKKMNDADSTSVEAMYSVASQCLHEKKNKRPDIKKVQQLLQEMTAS

## COc1ccc(-n2c(SCc3nc(-c4ccc(C)cc4)no3)nnc2-c2ccncc2)cc1 [Compound 1]
PDGFRβ(h)
  activity at 10 µM: 129%
MKK7β(h)
  activity at 10 µM: 90%
TCPTP(h)
  activity at 10 µM: 100%
LOK(h)
  activity at 10 µM: 109%
Plk3(h)
  activity at 10 µM: 104%
MSK2(h)
  activity at 10 µM: 108%
ASK1(h)
  activity at 10 µM: 106%
Canonical Wnt signaling; HEK293, 10 μM compound, 30% Wnt3a-CM, relative to DMSO control
  activity at 10 µM: 15.4%
Canonical Wnt signaling; HEK293, 30% Wnt3a-CM, 0.1-10 μM, read-out: IC50, reduction of canonical Wnt signaling by the ST-Luc assay
  IC50: 1 µM
SW480 cells
  GI50: 11.5 µM
MLK1(h)
  activity at 10 µM: 99%
EGFR(h)
  activity at 10 µM: 108%
SRPK1(h)
  activity at 10 µM: 96%
p70S6K(h)
  activity at 10 µM: 113%
CDK1/cyclinB(h)
  activity at 10 µM: 101%
PKA(h)
  activity at 10 µM: 86%
Pim-1(h)
  activity at 10 µM: 91%
Rse(h)
  activity at 10 µM: 108%
MEK1(h)
  activity at 10 µM: 108%
PAK2(h)
  activity at 10 µM: 99%
IRAK4(h)
  activity at 10 µM: 98%
